# Patent US11247965B2 (VenatoRx Pharmaceuticals, Inc., priority 2017, dated 2022)
# What was measured:
# [1] = test system: HBV replication in HepAD38 cells; experiment: Anti-HBV activity in HepAD38 cells, extracellular HBV DNA by QPCR; assay type: cell-based, HBV (genotype D, serotype ayw); details: Hepatitis B virus, HePAD38, 168 h, read-out: Anti-HBV EC50, HepAD38 cells, extracellular HBV DNA by QPCR, 7 days of incubation
# How it was run: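 Seven-day compound exposure (30 μM down to 10 nM, half-log steps) after tetracycline withdrawal induced HBV replication in HepAD38 cells. Extracellular viral DNA measured by QPCR (copies/mL via standard curve), normalised to DMSO wells; EC50 from 4-parameter non-linear regression.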
# [2] = In vitro cytotoxicity, MTT cell viability assay in HepG2 cells; assay type: cell-based; details: human, Cytotoxicity CC50
# How it was run: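 Read-out: MTT formazan absorbance at 492 nm, expressed as % of vehicle signal; CC50 by 4-parameter non-linear regression. Parental HepG2, 20,000 cells/well, treated 7 days with compound from 30 μM down to 1.0 nM.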
Compound,EC50 [1],CC50 at 7 days [2]
"Cc1cc(NC(=O)c2ccc(F)c(C(F)(F)C(=O)N3CCC(NS(C)(=O)=O)CC3)c2)ccc1F [Example 231, 3-(1,1-difluoro-2-(4-(methylsulfonamido)piperidin-1-yl)-2-oxoethyl)-4-fluoro-N-(4-fluoro-3-methylphenyl)benzamide]",< 5 µM,5 to 30 µM
"Cc1cc(NC(=O)c2ccc(F)c(C(F)(F)C(=O)N3CCC(NC(=O)CC4CCOCC4)CC3)c2)ccc1F [Example 232, 3-(1,1-difluoro-2-oxo-2-(4-(2-(tetrahydro-2H-pyran-4-yl)acetamido)piperidin-1-yl)ethyl)-4-fluoro-N-(4-fluoro-3-methylphenyl)benzamide]",< 5 µM,5 to 30 µM
"Cc1cc(NC(=O)c2ccc(F)c(C(F)(F)C(=O)N3CCC(NC(=O)C4CCNC(=O)C4)CC3)c2)ccc1F (stereo not drawn) [Example 233, N-(1-(2,2-difluoro-2-(2-fluoro-5-((4-fluoro-3-methylphenyl)carbamoyl)phenyl)acetyl)piperidin-4-yl)-2-oxopiperidine-4-carboxamide]",< 5 µM,5 to 30 µM
"Cc1cc(NC(=O)c2ccc(F)c(C(F)(F)C(=O)N3CC[C@H](N)C3)c2)ccc1F [Example 234, (S)-3-(2-(3-aminopyrrolidin-1-yl)-1,1-difluoro-2-oxoethyl)-4-fluoro-N-(4-fluoro-3-methylphenyl)benzamide]",5 to 30 µM,> 30 µM
"Cc1cc(NC(=O)c2ccc(F)c(C(F)(F)C(=O)NC3CCC(C(=O)O)CC3)c2)ccc1F (stereo not drawn) [Example 235, (1r,4r)-4-(2,2-difluoro-2-(2-fluoro-5-((4-fluoro-3-methylphenyl)carbamoyl)phenyl)acetamido)cyclohexane-1-carboxylic acid]",5 to 30 µM,> 30 µM
"Cc1cc(NC(=O)c2ccc(F)c(C(F)(F)C(=O)NC3(C#N)CC3)c2)ccc1F [Example 236, 3-(2-((1-cyanocyclopropyl)amino)-1,1-difluoro-2-oxoethyl)-4-fluoro-N-(4-fluoro-3-methylphenyl)benzamide]",5 to 30 µM,> 30 µM
"Cc1cc(NC(=O)c2ccc(F)c(C(F)(F)C(=O)N3CCOC[C@H]3C(=O)O)c2)ccc1F [Example 237, (S)-4-(2,2-difluoro-2-(2-fluoro-5-((4-fluoro-3-methylphenyl)carbamoyl)phenyl)acetyl)morpholine-3-carboxylic acid]",5 to 30 µM,> 30 µM
"Cc1cc(NC(=O)c2ccc(F)c(C(F)(F)C(=O)N3CCc4[nH]cnc4C3)c2)ccc1F [Example 238, 3-(1,1-difluoro-2-oxo-2-(1,4,6,7-tetrahydro-5H-imidazo[4,5-c]pyridin-5-yl)ethyl)-4-fluoro-N-(4-fluoro-3-methylphenyl)benzamide]",< 5 µM,> 30 µM
"COC(=O)N1C[C@H]2COC[C@@H](C1)N2C(=O)C(F)(F)c1cc(C(=O)Nc2ccc(F)c(C)c2)ccc1F [Example 239, methyl (1R,5S)-9-(2,2-difluoro-2-(2-fluoro-5-((4-fluoro-3-methylphenyl)carbamoyl)phenyl)acetyl)-3-oxa-7,9-diazabicyclo[3.3.1]nonane-7-carboxylate]",< 5 µM,5 to 30 µM
"Cc1cc(NC(=O)c2ccc(F)c(C(F)(F)C(=O)N3[C@@H]4CC[C@H]3CC(O)(CC#N)C4)c2)ccc1F (stereo partly drawn) [Example 240, 3-(2-((1R,5S)-3-(cyanomethyl)-3-hydroxy-8-azabicyclo[3.2.1]octan-8-yl)-1,1-difluoro-2-oxoethyl)-4-fluoro-N-(4-fluoro-3-methylphenyl)benzamide]",< 5 µM,< 5 µM
"Cc1cc(NC(=O)c2ccc(F)c(C(F)(F)C(=O)N3[C@@H]4CC[C@H]3CC(O)(CC(N)=O)C4)c2)ccc1F (stereo partly drawn) [Example 241, 3-(2-((1R,5S)-3-(2-amino-2-oxoethyl)-3-hydroxy-8-azabicyclo[3.2.1]octan-8-yl)-1,1-difluoro-2-oxoethyl)-4-fluoro-N-(4-fluoro-3-methylphenyl)benzamide]",< 5 µM,5 to 30 µM
"Cc1cc(NC(=O)c2ccc(F)c(C(F)(F)C(=O)N3CCc4nc(N)sc4C3)c2)ccc1F [Example 242, 3-(2-(2-amino-6,7-dihydrothiazolo[5,4-c]pyridin-5(4H)-yl)-1,1-difluoro-2-oxoethyl)-4-fluoro-N-(4-fluoro-3-methylphenyl)benzamide]",< 5 µM,5 to 30 µM
"Cc1cc(NC(=O)c2ccnc(C(F)(F)C(=O)N3CCC(O)CC3)c2)ccc1F [Example 243, 2-(1,1-difluoro-2-(4-hydroxypiperidin-1-yl)-2-oxoethyl)-N-(4-fluoro-3-methylphenyl)isonicotinamide]",5 to 30 µM,> 30 µM
"Cc1cc(NC(=O)c2ccnc(C(F)(F)C(=O)N3C4CC[C@@H]3C[C@@H](C(=O)O)C4)c2)ccc1F [Example 244, (1R,3s,5S)-8-(2,2-difluoro-2-(4-((4-fluoro-3-methylphenyl)carbamoyl)pyridin-2-yl)acetyl)-8-azabicyclo[3.2.1]octane-3-carboxylic acid]",5 to 30 µM,5 to 30 µM
"Cc1cc(NC(=O)c2ccnc(C(F)(F)C(=O)N3C4CC[C@@H]3C[C@@H](C(N)=O)C4)c2)ccc1F [Example 245, (1R,3s,5S)-8-(2,2-difluoro-2-(4-((4-fluoro-3-methylphenyl)carbamoyl)pyridin-2-yl)acetyl)-8-azabicyclo[3.2.1]octane-3-carboxamide]",5 to 30 µM,> 30 µM
"Cc1cc(NC(=O)c2ccc(F)c(C(F)(F)C(=O)N3C4CC[C@@H]3C[C@@H](O)C4)c2)cc(F)c1F [Example 246, 3-(1,1-difluoro-2-((1R,3s,5S)-3-hydroxy-8-azabicyclo[3.2.1]octan-8-yl)-2-oxoethyl)-N-(3,4-difluoro-5-methylphenyl)-4-fluorobenzamide]",< 5 µM,5 to 30 µM
"O=C(Nc1cc(F)c(F)c(F)c1)c1ccc(Cl)c(C(F)(F)C(=O)N2C3CC[C@@H]2C[C@@H](O)C3)c1 [Example 247, 4-chloro-3-(1,1-difluoro-2-((1R,3s,5S)-3-hydroxy-8-azabicyclo[3.2.1]octan-8-yl)-2-oxoethyl)-N-(3,4,5-trifluorophenyl)benzamide]",5 to 30 µM,5 to 30 µM
"Cc1cc(NC(=O)c2ccc(F)c(C(F)(F)C(=O)N3CCC(O)(CO)CC3)c2)cc(F)c1F [Example 248, 3-(1,1-difluoro-2-(4-hydroxy-4-(hydroxymethyl)piperidin-1-yl)-2-oxoethyl)-N-(3,4-difluoro-5-methylphenyl)-4-fluorobenzamide]",< 5 µM,5 to 30 µM
"Cc1cc(NC(=O)c2ccc(F)c(C(F)(F)C(=O)N3C4CC[C@@H]3C[C@H](O)C4)c2)cc(F)c1F [Example 249, 3-(1,1-difluoro-2-((1R,3r,5S)-3-hydroxy-8-azabicyclo[3.2.1]octan-8-yl)-2-oxoethyl)-N-(3,4-difluoro-5-methylphenyl)-4-fluorobenzamide]",< 5 µM,5 to 30 µM
"Cc1cc(NC(=O)c2ccc(F)c(C(F)(F)C(=O)N3CCC(O)C(F)(F)C3)c2)cc(F)c1F (stereo not drawn) [Example 250, 3-(2-(3,3-difluoro-4-hydroxypiperidin-1-yl)-1,1-difluoro-2-oxoethyl)-N-(3,4-difluoro-5-methylphenyl)-4-fluorobenzamide]",< 5 µM,5 to 30 µM
"Cc1cc(NC(=O)c2ccc(F)c(C(F)(F)C(=O)N3CCC(O)C(F)(F)C3)c2)cc(F)n1 (stereo not drawn) [Example 251, 3-(2-(3,3-difluoro-4-hydroxypiperidin-1-yl)-1,1-difluoro-2-oxoethyl)-4-fluoro-N-(2-fluoro-6-methylpyridin-4-yl)benzamide]",5 to 30 µM,5 to 30 µM
"Cc1cc(NC(=O)c2ccc(F)c(C(F)(F)C(=O)NC34CCC(NC(=O)OC(C)(C)C)(CC3)C4)c2)ccc1F [Example 252, tert-butyl (4-(2,2-difluoro-2-(2-fluoro-5-((4-fluoro-3-methylphenyl)carbamoyl)phenyl)acetamido)bicyclo[2.2.1]heptan-1-yl)carbamate]",5 to 30 µM,< 5 µM
"Cc1cc(NC(=O)c2ccc(F)c(C(F)(F)C(=O)NC34CCC(N)(CC3)C4)c2)ccc1F [Example 253, 3-(2-((4-aminobicyclo[2.2.1]heptan-1-yl)amino)-1,1-difluoro-2-oxoethyl)-4-fluoro-N-(4-fluoro-3-methylphenyl)benzamide]",< 5 µM,> 30 µM
"Cc1cc(NC(=O)c2ccc(F)c(C(F)(F)C(=O)NC34CCC(O)(CC3)C4)c2)ccc1F [Example 254, 3-(1,1-difluoro-2-((4-hydroxybicyclo[2.2.1]heptan-1-yl)amino)-2-oxoethyl)-4-fluoro-N-(4-fluoro-3-methylphenyl)benzamide]",5 to 30 µM,> 30 µM
Cc1cc(NC(=O)c2ccc(F)c(C(F)(F)C(=O)N3CC[C@H](O)C[C@H]3C)c2)ccc1F [Example 255],< 5 µM,5 to 30 µM
"Cc1cc(NC(=O)c2cccc(C(F)(F)C(=O)N3C4CC[C@@H]3C[C@@H](O)C4)c2F)ccc1F [Example 256, 3-(1,1-difluoro-2-((1R,3s,5S)-3-hydroxy-8-azabicyclo[3.2.1]octan-8-yl)-2-oxoethyl)-2-fluoro-N-(4-fluoro-3-methylphenyl)benzamide]",< 5 µM,5 to 30 µM
"Cc1cc(NC(=O)c2ccc(F)c(C(F)(F)C(=O)N3C4CC[C@@H]3C[C@@H](C(N)=O)C4)c2)ccc1F [Example 257, (1R,3s,5S)-8-(2,2-difluoro-2-(2-fluoro-5-((4-fluoro-3-methylphenyl)carbamoyl)phenyl)acetyl)-8-azabicyclo[3.2.1]octane-3-carboxamide]",< 5 µM,5 to 30 µM
